In patent publication US20050070591A1, “Indole derivative” (priority 2001, published 2005):
“And” between values parts separate entries of the source, which are not always exact repeats. Equal entries are not always repeated.

Columns and labels:
[1] = tested on: human epidermoid carcinoma cells A431; assay: Abrogating action for the cell cycle accumulation in G2 and S phases (flow cytometry DNA histogram); type: cell-based; details: cisplatin 20 μmol/L
Procedure: Each 5 mL of human epidermoid carcinoma cells A431 (hereinafter, referred to as A431 cells) prepared in 6×10^4 cells/mL in a DMEM medium (manufactured by Nissui; hereinafter, referred to as the medium A) containing 10% fetal bovine serum were disposed in a 10-cm laboratory dish (manufactured by Falcon; product no. 3303). The plate was incubated in a carbon dioxide gas incubator at 37° C. for 24 hours, then cisplatin (manufactured by Sigma) where its final concentration in the medium A was made 20 μmol/L was added and the mixture was incubated at 37° C. for 1 hour in a carbon dioxide gas incubator.
After removing the medium, the cell was washed with PBS(−) [phosphate-buffered physiological saline solution (containing no calcium ion); manufactured by Dainippon Pharmaceutical, then the medium A was added thereto, the mixture was incubated at 37° C. for 15 hours in a carbon dioxide gas incubator, a compound which was appropriately diluted with the medium A was added thereto and the mixture was incubated again in a carbon dioxide gas incubator at 37° C. for 8 hours. After removal of the supernatant from the culture, the cell was washed with PBS(−), exfoliated with a 0.25% aqueous solution of trypsin (0.25% Trypsin manufactured by Gibco BRL) and a 0.02% aqueous solution of ethylenediaminetetraacetic acid (manufactured by Wako Pure Chemicals), fixed with a 70% aqueous solution of ethanol so as to make the cell concentration 10^6 cells/mL and preserved in a cool chamber of 4° C. The fixed cells were subjected to a centrifugal separation to remove ethanol, washed with PBS(−) and treated with a 0.25 mg/mL ribonuclease A type 1-A (manufactured by Sigma) PBS(−) solution containing 0.1% Nonidet P-40 (manufactured by Nakarai Kagaku Yakuhin) at 37° C. for 30 minutes and a 0.1% solution of propidium iodide (manufactured by Sigma) in NP-40/PBS(−) so as to make the final concentration 50 μg/mL followed by staining in ice for not shorter than 20 minutes.
A DNA histogram was measured using an EPICS ELITE Flow Cytometer (manufactured by Coulter) and distribution of cell cycle was analyzed using a MultiCycle Program (manufactured by Phonenix Flow Systems).

[2] = molecular target: T1, human CDK2-cyclin E (Homo sapiens, UniProt P24941); assay: CDK2 inhibitory activity (incorporation of 32P from [γ-32P]-ATP into GST-RB); type: biochemical; details: 50 μmol/L ATP, 30° C., 5 minutes; read-out: Enzyme Inhibitory Activity, IC50
T1 construct: made in house; host or cells: Spodoptera frugiperda (Sf-9) insect cells, baculovirus
Procedure: A crude extract of cells of an insect, Spodoptera frugiperda (Sf-9) infected with human CDK2-cyclin E-expressing baculovirus was subjected to an affinity purification to give an enzyme solution. The enzyme solution (4 μL), 20 μL of reaction solution containing a DMSO solution in which a test compound was dissolved (final concentration: 0.1%) and 5 μL of a substrate solution [50 μmol/L of ATP (final concentration), 2 μCi of [γ-^32P]-ATP and 500 ng of […] (GST-RB)] were incubated at 30° C. for 5 minutes. A sodium dodecylsulfate-polyacrylamide gel electrophoresis (SDS-PAGE) was carried out, then incorporation of radiation activity from [γ-^32P]-ATP into GST-RB was determined using an Image Analyzer BAS 200 (Fuji Photo-Film) and an enzyme inhibition was calculated. CDK2 inhibitory activity (I) at various concentrations of a test compound was calculated by the following formula using radiation activity (C) of the group to which no test compound was added, radiation activity (S) of the group to which a test compound was added and radiation activity (B) of a background (a sample where the reaction time was 0 hour) and a concentration by which CDK2 activity was inhibited to an extent of 50% by each test compound was defined as IC50. I(%)=[1−(S−B)/(C−B)]×100

[3] = tested on: Saos-2 cells; assay: Cell growth inhibition against human osteosarcoma cells Saos-2; type: cell-based; details: Saos-2, 72 hours, read-out: Cell Growth Inhibitory Activity, IC50, Saos-2
Procedure: (§1) Each of Saos-2 and U2OS cells was made into 1.0×10^4 cells/mL using a Roswell Park Memorial Institute's medium (RPMI) 1640 (manufactured by Nissui) containing 10% of fetal bovine serum and penicillin/streptomycin and a Dulbecco's modified Eagle medium (DME) (manufactured by Nissui) containing 10% fetal bovine serum and penicillin/streptomycin each. Each of the prepared cells was dispensed in an amount of 0.1 mL per well to a 96-well microtiter plate (#167008 manufactured by Nunk). Each plate was incubated in a carbon dioxide gas incubator at 37° C. for 20 hours. A solution of a test compound in DMSO prepared into 10 mmol/L was diluted with each medium for incubation and each 0.05 mL thereof was added to each well, subjected to stepwise dilution by means of a pipetting operation in the plate and incubated at 37° C. for 72 hours in a carbon dioxide gas incubator.
(§2) A supernatant was removed from cell culture, each well was washed with 0.1 mL of a phosphate buffer (PBS buffer) twice and 0.1 mL of the above medium was added to each well. A cell proliferation kit II (manufactured by Boehringer Mannheim) was used for the measurement of cell numbers in each well. A reagent for color reaction was added, incubation was carried out in a carbon dioxide gas incubator at 37° C. for 3 hours and absorbance at 490 nm and 650 nm was measured in a microplate reader (M-SP max 250; manufactured by Wako Pure Chemicals). A value where absorbance at 650 nm was deducted from that at 490 nm (difference absorbance) was calculated for each well and the difference absorbance obtained from non-treated cells and cells which were treated with a test compound of a known concentration was compared whereupon a concentration of the test compound which inhibited the cell growth to an extent of 50% was calculated and expressed as IC50.

[4] = tested on: U2OS cells; assay: Cell growth inhibition against human osteosarcoma cells U2OS; type: cell-based; details: 72 hours, read-out: Cell Growth Inhibitory Activity, IC50, U2OS
Procedure: as §1, §2

Q: Which results are given for `N.N.[Cl][Pt][Cl]` [Cisplatin, cisplatin]?
A: Cell Cycle Distribution (%) G1 [1]: 2.2% and 10.4%; Cell Cycle Distribution (%) G2M [1]: 17.2% and 22.4%; Cell Cycle Distribution (%) S [1]: 80.6% and 67.2%; Change of cell cycle distribution as compared with untreated groups (induction of the accumulation in G2 or S phase) [1]: increase in S phase, increase in G2 and M phase and decrease in G1 phase

Q: `CCCCC(=O)Oc1cccc(-c2cc3c(cc(C=O)n3C)c3c2C(=O)NC3=O)c1` [Compound 12] was tested. Which IC50 [2] did it give?
A: 5000 nM

Q: Which IC50 [2] does the source give for `Cn1c2ccccc2c2c3c(c(CBr)cc21)C(=O)NC3=O` [Compound 36] here?
A: 2300 nM

Q: Which IC50 [2] does the source give for `C=CCn1c2ccccc2c2c3c(c(N)cc21)C(=O)NC3=O` [Compound 45] here?
A: 4900 nM

Q: `C=CCn1c2ccccc2c2c3c(c(CO)cc21)C(=O)NC3=O` [Compound 46] was tested. Which IC50 [2] did it give?
A: 3300 nM

Q: How did the IC50 [2] turn out when `C=CCn1c2ccccc2c2c3c(c(COC4CCCCO4)cc21)C(=O)NC3=O` (centres unmarked) [Compound 47] was run?
A: 4000 nM

Q: With `C=CCn1c2ccccc2c2c3c(c(CN=[N+]=[N-])cc21)C(=O)NC3=O` [Compound 48] as the compound, how does the IC50 [2] read?
A: 430 nM

Q: `C=CCn1c2ccccc2c2c3c(c(C=O)cc21)C(=O)NC3=O` [Compound 50] was tested. Which IC50 [2] did it give?
A: 660 nM

Q: Which IC50 [2] does the source give for `C=CCn1c2ccccc2c2c3c(c(C=NNCCO)cc21)C(=O)NC3=O` [Compound 54] here?
A: 2000 nM

Q: Which results are given for `CN(C)CCCn1c2ccccc2c2c3c(c(C=O)cc21)C(=O)NC3=O` [Compound 64]?
A: IC50 [3]: 1300 nM; IC50 [2]: 7000 nM; IC50 [4]: 1600 nM

Q: How did the IC50 [3] turn out when `CN(C)CCCn1c2ccccc2c2c3c(c(C=NO)cc21)C(=O)NC3=O` [Compound 65] was run?
A: 680 nM

Q: What about the IC50 [2] of the same compound?
A: 2800 nM

Q: What about the IC50 [4] of the same compound?
A: 500 nM

Q: Which results are given for `CC(Cn1c2ccccc2c2c3c(c(C=O)cc21)C(=O)NC3=O)N(C)C` (centres unmarked) [Compound 66]?
A: IC50 [3]: 1200 nM; IC50 [2]: 250 nM; IC50 [4]: 2100 nM

Q: `CC(Cn1c2ccccc2c2c3c(c(C=NO)cc21)C(=O)NC3=O)N(C)C` (centres unmarked) [Compound 68] was tested. Which IC50 [3] did it give?
A: 930 nM

Q: And the IC50 [2]?
A: 200 nM

Q: And the IC50 [4]?
A: 1200 nM

Q: Which results are given for `CC(Cn1c2ccccc2c2c3c(c(C=NN)cc21)C(=O)NC3=O)N(C)C` (centres unmarked) [Compound 69]?
A: IC50 [3]: 300 nM; IC50 [2]: 960 nM; IC50 [4]: 680 nM

Q: For `COC(=O)c1ccc(Cn2c3ccccc3c3c4c(c(COC5CCCCO5)cc32)C(=O)NC4=O)cc1` (centres unmarked) [Compound 79], which IC50 [2] is on record?
A: 2000 nM

Q: How did the IC50 [2] turn out when `O=C1NC(=O)c2c1c(COC1CCCCO1)cc1c2c2ccccc2n1Cc1ccc2ccccc2c1` (centres unmarked) [Compound 80] was run?
A: 2400 nM
